Reference: PubChem BioAssay AID624132 (Broad Institute, 2012)
Inconclusive results are not listed.

What follows are compounds tested on Clone20 osteoblast Shn3 3'UTR firefly luciferase, 24 h (assay: Shn3 3'UTR reporter inhibitors, dose response, cell-based, Clone20 osteoblasts, firefly luciferase, cherry-picked (AID 624132)).
CC1=CC2OC3CC4OC(=O)C=CC=CC(C(C)O)OCC(O)C(C)CC(=O)OCC2(CC1O)C4(C)C31CO1 (stereo not drawn) showed an AC50 of under 260 nM. With CC1=CC2OC3CC4OC(=O)C=CC=CC(C(C)O)OCC(O)C5(C)OC5C(=O)OCC2(CC1O)C4(C)C31CO1 (stereo not drawn) the AC50 was under 260 nM. In the case of CC(=O)OC1C(=O)OCC23CCC4(C)OC4C2OC2CC(OC(=O)C=CC=CC(=O)OCCC1C)C3(C)C21CO1 (stereo not drawn), the AC50 is reported as under 260 nM. For CC(=O)OC[C@]12CCC(C)=C[C@H]1O[C@@H]1[C@H](O)[C@@H](OC(C)=O)[C@@]2(C)[C@]12CO2, the AC50 was under 260 nM. Compound C[C@H]1[C@@H](OS(=O)(=O)O)C[C@@H]2C[C@H]([C@@H](O)c3cc(=O)[nH]c(=O)[nH]3)NC3=NC[C@H]1N32 has an AC50 of 1320 nM. CC1=CC2OC3CC4OC(=O)C=CC=CC(=O)OCCC(C)C(O)C(=O)OCC2(CC1O)C4(C)C31CO1 (stereo not drawn) gave an AC50 of under 260 nM. CC(=O)OCC12CC(OC(=O)CC(C)C)C(C)=CC1OC1C(O)C(OC(C)=O)C2(C)C12CO2 (stereo not drawn) showed an AC50 of under 260 nM. With CC(=O)OC1CC2OC3C=C(C)CCC3(C)C1(C)C21CO1 (stereo not drawn) the AC50 was 829 nM.
